Tests used:
CYP2C41 = target: T1, CYP2C41 (Canis lupus familiaris, UniProt O62671); type: in vitro ADME, canine; settings: recombinant CYP2C41; (+)-M1 10 μM, (+)-M2 0.5 μM
T1 sequence (O62671 1-489): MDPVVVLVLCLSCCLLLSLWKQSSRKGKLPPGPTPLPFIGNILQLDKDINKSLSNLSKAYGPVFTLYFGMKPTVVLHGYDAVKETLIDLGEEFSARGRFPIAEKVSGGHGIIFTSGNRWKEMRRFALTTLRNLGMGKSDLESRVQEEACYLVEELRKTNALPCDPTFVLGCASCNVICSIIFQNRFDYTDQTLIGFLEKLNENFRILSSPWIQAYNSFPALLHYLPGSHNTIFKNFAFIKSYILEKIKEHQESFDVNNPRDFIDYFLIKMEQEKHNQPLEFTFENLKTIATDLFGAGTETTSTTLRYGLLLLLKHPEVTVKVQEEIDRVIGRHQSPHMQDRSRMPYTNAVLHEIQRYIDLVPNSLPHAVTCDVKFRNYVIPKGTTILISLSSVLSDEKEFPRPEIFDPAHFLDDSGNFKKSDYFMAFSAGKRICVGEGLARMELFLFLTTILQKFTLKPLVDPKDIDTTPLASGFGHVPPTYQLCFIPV

CYP1A1 = target: T2, CYP1A1 (Canis lupus familiaris, UniProt P56590); type: in vitro ADME, canine; settings: recombinant CYP1A1; (+)-M1 10 μM, (+)-M2 0.5 μM
T2 sequence (P56590 1-524): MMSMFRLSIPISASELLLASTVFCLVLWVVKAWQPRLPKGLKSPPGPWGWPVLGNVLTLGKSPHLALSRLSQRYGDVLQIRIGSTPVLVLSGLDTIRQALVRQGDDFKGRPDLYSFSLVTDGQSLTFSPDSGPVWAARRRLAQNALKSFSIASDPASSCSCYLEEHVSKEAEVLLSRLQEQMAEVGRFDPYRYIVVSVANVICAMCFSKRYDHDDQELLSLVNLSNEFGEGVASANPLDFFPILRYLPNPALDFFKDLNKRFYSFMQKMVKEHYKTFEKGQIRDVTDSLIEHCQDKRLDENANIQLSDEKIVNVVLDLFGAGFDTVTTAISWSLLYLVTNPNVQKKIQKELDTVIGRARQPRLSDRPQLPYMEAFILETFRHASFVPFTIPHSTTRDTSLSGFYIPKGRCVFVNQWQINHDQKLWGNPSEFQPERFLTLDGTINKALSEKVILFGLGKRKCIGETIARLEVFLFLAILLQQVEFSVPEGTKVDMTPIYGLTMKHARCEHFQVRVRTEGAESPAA

`CN(C)CC1CCCCC1(O)c1cccc(O)c1.Cl` (single isomer, unassigned; (+)) [(+)-M1, (+)-O-desmethyltramadol hydrochloride] was tested, and the “formation rate of (+)-M5 (in words)” value (CYP2C41) was “somewhat lower activities” and the “formation rate of (+)-M5 (in words)” value (CYP1A1) was “only very low activities”.
